Test results: patent US20180008593A1 (Purdue Pharma L.P., priority 2005, published 2018)
Where “and” joins values, the source holds several entries; their conditions need not be identical. Equal values may be shown once. Read-outs that look alike come from different tables or passages of the source.

Legend:
[1] = test system: patients with severe chronic pain; test: Laxative intake / mean laxative dose, Example 1; type: in vivo, human
Procedure: d) Laxative intake/mean laxative dose, which was calculated from the respective case report forms (CRF) entries. An analysis of the mean laxative dose during the last seven days was performed for patients who took only one laxative during the entire study. Entries from the medication record CRF page were used for all calculations (laxatives were identified by the WHO ATC Code A06A). For laxative intake number of days with laxation during the last 7 days and the percentage of days with laxation during the last 7 days were calculated for each study visit. In addition, the percentage of days with laxation during the whole maintenance phase and during the follow-up phase was calculated.

[2] = test system: experimental human pain model, healthy volunteers; test: Pain-related evoked potentials (EEG) after CO2 stimulation of the nasal mucosa, Example 4; type: in vivo; details: for Magnitude of reduction of amplitude P1N1 at C4 compared to baseline: 60% CO2
Procedure: This was a single site, single dose, double blind, placebo-controlled, 5-treatment, 5-period, randomized, balanced crossover study in healthy adult male and female subjects. […] Subjects were allocated each of the 5 treatments described in the synopsis according to a random allocation schedule (RAS). There was a 7-day washout period
Analgesic effects were assessed by means of an experimental human pain model based on the chemosomatosensory pain-related cortical potentials (CSSEPs) and pain-ratings after specific phasic nociceptive stimulation of the nasal mucosa with gaseous CO2. In addition, intensity estimates of tonic pain produced by stimulation of the nasal mucosa with dry air at controlled flow and temperature were employed.
Within the present pain model, the following were used as indicators of analgesia: • post-treatment decrease in pain-ratings and/or • post-treatment decrease in amplitudes of pain-related evoked potentials and/or • post-treatment increase in latencies of pain-related evoked potentials, relative to the pretreatment values.
1. Base-to-peak amplitudes P1, N1 and P2, peak-to-peak amplitudes P1 N1 and N1P2 of pain related evoked potentials 2. Latencies P1, N1 and P2 of pain-related evoked potentials 3. Intensity estimates of phasic (C02-) pain 4. Intensity estimates of tonic pain
(§1) In the first 20 minutes, 40 phasic CO2-stimuli were applied (20 stimuli at a concentration of 70% and 20 at a concentration of 60%, interstimulus interval 30 s). In response to these stimuli, pain-related potentials and subjective intensity estimates were recorded.
(§2) CO2-stimuli were mixed in a constantly flowing air stream with controlled temperature (36.5° C.) and humidity (80% relative humidity) presented to the left nostril (stimulus duration 200 ms, interstimulus interval 30 s). […] During intervals between phasic stimuli subjects performed a simple tracking task on a video screen. Using a joystick, they had to keep a small square inside a larger one that randomly moved around.
The EEG was recorded from 5 positions of the international 10/20 system (Cz, C3, C4, Fz and Pz; see FIG. 40) referenced to linked earlobes (A1+A2). Possible eye blink artifacts were monitored from an additional site (Fp2/A1+A2). Stimulus linked EEG segments of 2040 ms duration were sampled with a frequency of 250 Hz (band pass 0.2-30 Hz, pre-stimulus period 512 ms). The recorded analog EEG segments were then converted to digital and filed electronically. The average value for each recording position was separately calculated, discarding all eye blink contaminated records. By this procedure pain-related evoked potentials were obtained in response to the painful CO2 stimuli. Base to peak amplitudes P1, N1 and P2, the peak to peak amplitudes P1 N1 and N1 P2 and the latencies of P1, […] and P2 were measured. Wherever the time of measurement was used in the data analysis, the mid-time of a session was taken. FIG. 40 presents the components of the pain-related evoked potentials.

[3] = test system: experimental human pain model, healthy volunteers; test: Intensity estimates of phasic (CO2) pain, Example 4; type: in vivo; details: 70% CO2; 45 mg naloxone with 20 mg oxycodone
Procedure: as §1, with “recorded. Subsequently, tonic pain was induced for 16 minutes and subjects had to rate the intensity of the dull, burning pain.” for “recorded.”
as §2
Within 3-4 seconds after presentation of each CO2 stimulus, subjects compared the perceived intensity to a standard stimulus (70% v/v CO2) presented at the beginning of the first session of each trial day. […] The intensity of the standard stimulus was defined as 100 Estimation Units (EU). The mid-time of a session was regarded as time of measurement. Intensity estimates of the CO2 stimuli (60% and 70%) were evaluated separately for each concentration. On a trial day, the ratings of each post-treatment session were evaluated relative to base line values. […]

[4] = test system: patients with severe chronic pain of tumour and non-tumour origin; details: for Mean Pain, Mean (SD) V3: V3 end of titration; for Mean Pain, Mean (SD) V5: V5 end of maintenance
Procedure: The pre-randomization phase consisted of screening and titration/run-in. Following screening, patients entered either a titration or run-in period. Patients with insufficient pain pre-treatment entered a minimum 2-week titration period and were individually titrated and stabilized at an oxycodone dose of 40 mg, 60 mg or 80 mg per day. Patients on stable oxycodone pre-treatment at screening (between 40-80 mg/day) and with concomitant constipation, entered a 1 week run-in period and were eligible for the maintenance phase without prior titration. For all patients, the dose of oxycodone could be adjusted during titration or run-in and investigators maintained compulsory telephone contact every 2nd day to assess pain control and make dose changes.
(§3) a) Mean Pain during the last 7 days prior to each visit, based on the patient's twice-daily assessment of pain intensity using the 0-100 numerical analogue scale (NAS) (0=no pain and 100=worst imaginable pain). Mean Pain was calculated for each study visit as the mean value of the daily mean values of all patient's diary entries from the last 7 days. b) Mean bowel function: patient's assessment, at each study visit, of bowel function during the last 7 days prior to each visit. Mean bowel function was calculated from the mean of the three 0-100 NAS scores: ease of defecation (0=easy/no difficulty, 100=severe difficulty), feeling of incomplete bowel evacuation (0=not at all, 100=very strong), and judgment of constipation (0=not at all, 100=very strong). Secondary efficacy variables of interest included among others: c) Global assessment of efficacy, tolerability and preference. […] Tolerability was measured using the same 0 to 7 numerical analogue scale.

[5] = test system: bowel function of pain patients on oxycodone with need for laxatives; details: for Mean Bowel Function Score, Mean (SD) V3: V3 end of titration; for Mean Bowel Function Score, Mean (SD) V5: V5 end of maintenance
Procedure: as §3
Mean bowel function was calculated for each study visit from the mean of the three NAS values ease/difficulty of defecation, feeling of incomplete bowel evacuation and judgment of constipation.
In addition, two-sided 95% CIs (CI, confidence interval) for the difference in means between the treatment groups were provided. […] These analyses were performed for the ITT and PP populations.
The parameter estimates derived were taken to display a surface plot of the whole dose range investigated. Moreover, a contour plot of the bowel function with a granulation of 10 was performed.

[6] = oral administration; extensive first-pass-metabolism; cited from earlier work
[7] = test system: rats physically dependent on oxycodone; test: Naloxone-precipitated withdrawal in oxycodone-dependent rats (Gellert-Holtzman global rating, graded and checked signs), Example 5; details: i.v.
Procedure: Rats were implanted with Alzet 2ML 1 osmotic minipumps infusing either saline vehicle or oxycodone at 1.5 mg/kg/h for 7 days as described above. […] The complete parametric design for oxycodone-pump implanted rats required testing rats with vehicle:vehicle and oxycodone:vehicle.
Signs of physical dependence were evaluated in rats intravenously administered the drugs, and then immediately placed back in their home cages for a 60-min observation period. […] The table is divided into Graded Signs and Checked Signs, and assigned a weighted factor. The rats were evaluated for these signs during the 60 min observation period, the scores were collected, and a combined Global Score was assigned to each rat. Data were analyzed by combining the graded signs of escape attempts and wet-dog shakes into a single score of Grades Signs during each 15-min interval for 60-min. Checked signs were analyzed during each 15-min interval for 60-min.
The rats were assessed in 15-min intervals for both graded and checked signs for a total of 60 min. The graded signs of escape attempts and wet-dog shakes were tallied, whereas, checked signs such as diarrhea, profuse salivation, chromodactorrhea, etc. were noted as being either absent or present during the 15-min period. Both graded and checked signs were assigned a numeric score based on studies by Gellert and Holtzman (1978), and the total value for each animal was added to provide a global rating.
The incidence of checked signs during opioid withdrawal was also analyzed statistically within each time interval at 0-15, 15-30, 30-45 and 45-60 minutes. The data was analyzed within each time interval using contingency table Person's Chi Square analysis (Sigma Stat Statistical Software, SPSS, Inc.) to evaluate the X2 value. X2 values exceeding the critical value for 7 of 14.1 were considered statistically significant intervals for that checked behavioral sign.

[8] = naloxone 10 mg/day + oxycodone 40-80 mg/day
[9] = naloxone 20 mg/day + oxycodone 40-80 mg/day
[10] = naloxone 40 mg/day + oxycodone 40-80 mg/day
[11] = ITT non-missing, naloxone 10 mg/day + oxycodone 40-80 mg/day
[12] = ITT non-missing, naloxone 20 mg/day + oxycodone 40-80 mg/day
[13] = ITT non-missing, naloxone 40 mg/day + oxycodone 40-80 mg/day
[14] = PP, naloxone 20 mg/day + oxycodone 40-80 mg/day
[15] = PP, naloxone 40 mg/day + oxycodone 40-80 mg/day
[16] = ITT/LOCF, naloxone 10 mg/day + oxycodone 40-80 mg/day
[17] = ITT/LOCF, naloxone 20 mg/day + oxycodone 40-80 mg/day
[18] = ITT/LOCF, naloxone 40 mg/day + oxycodone 40-80 mg/day

C=CCN1CC[C@]23c4c5ccc(O)c4O[C@H]2C(=O)CC[C@@]3(O)[C@H]1C5 [Naloxone, naloxone]
Mean number of days with laxative intake during the last 7 days prior to the end of maintenance [1, 8]: 2.6±3.34 | Percentage of days (mean±SD) with laxation during the entire maintenance phase [1, 8]: 36.5±33.50 | Mean number of days with laxative intake during the last 7 days prior to the end of maintenance [1, 9]: 2.0±3.14 | Percentage of days (mean±SD) with laxation during the entire maintenance phase [1, 9]: 31.3±41.38 | Mean number of days with laxative intake during the last 7 days prior to the end of maintenance [1, 10]: 1.6±2.93 | Percentage of days (mean±SD) with laxation during the entire maintenance phase [1, 10]: 27.8±41.25 | Magnitude of reduction of amplitude P1N1 at C4 compared to baseline ([2]; 20 mg oxycodone in combination with 5 mg naloxone): 24.5% | Magnitude of reduction of amplitude P1N1 at C4 compared to baseline ([2]; 20 mg oxycodone in combination with 15 mg naloxone): 23.7% | Dose of naloxone PR that does not significantly influence the analgesic effect (EEG) of oxycodone ([2]; based on 20 mg oxycodone PR): below 15 mg | Intensity estimates of phasic pain stimuli, naloxone effect [3]: seemed to antagonize partly the oxycodone effect | Mean Pain, Mean (SD) V3 [4, 11]: 35.9 (16.3) | Mean Pain, Mean (SD) V3 [4, 12]: 39.8 (18.4) | Mean Pain, Mean (SD) V5 [4, 11]: 37.2 (17.3) | Mean Pain, Mean (SD) V5 [4, 12]: 37.5 (20.5) | Mean Pain, Mean (SD) V5 [4, 13]: 38.7 (17.0) | Mean Pain, Mean (SD) V3 [4, 14]: 40.1 (20.0) | Mean Pain, Mean (SD) V3 [4, 15]: 39.0 (16.1) | Mean Pain, Mean (SD) V5 ([4]; PP, naloxone 10 mg/day + oxycodone 40-80 mg/day): 38.8 (18.4) | Mean Pain, Mean (SD) V5 [4, 14]: 36.1 (19.5) | Mean Pain, Mean (SD) V5 [4, 15]: 38.7 (16.6) | Mean Bowel Function Score, Mean (SD) V3 [5, 11]: 53.5 (22.2) | Mean Bowel Function Score, Mean (SD) V3 [5, 12]: 51.3 (21.6) | Mean Bowel Function Score, Mean (SD) V3 [5, 13]: 48.2 (20.6) | Mean Bowel Function Score, Mean (SD) V5 [5, 11]: 40.3 (23.1) | Mean Bowel Function Score, Mean (SD) V5 ([5]; ITT non-missing, naloxone 10 mg/day + oxycodone 40-80 mg/day, listed as naloxone): 40.3 (±23.09) and 40.3 (±23.1) | Mean Bowel Function Score, Mean (SD) V5 [5, 12]: 31.3 (25.8) | Mean Bowel Function Score, Mean (SD) V5 ([5]; ITT non-missing, naloxone 20 mg/day + oxycodone 40-80 mg/day, listed as naloxone): 31.3 (±25.82) and 31.3 (±25.8) | Mean Bowel Function Score, Mean (SD) V5 [5, 13]: 26.1 (25.1) | Mean Bowel Function Score, Mean (SD) V5 ([5]; ITT non-missing, naloxone 40 mg/day + oxycodone 40-80 mg/day, listed as naloxone): 26.1 (±25.08) and 26.1 (±25.1) | Mean Bowel Function Score, Mean (SD) V3 [5, 16]: 53.6 (22.8) | Mean Bowel Function Score, Mean (SD) V3 [5, 17]: 49.9 (23.1) | Mean Bowel Function Score, Mean (SD) V3 [5, 18]: 47.7 (20.5) | Mean Bowel Function Score, Mean (SD) V5 [5, 16]: 40.1 (24.7) | Mean Bowel Function Score, Mean (SD) V5 [5, 17]: 33.2 (28.4) | Mean Bowel Function Score, Mean (SD) V5 [5, 18]: 26.5 (25.7) | Mean (±SD) bowel function ([5]; ITT, Visit 4, naloxone 10 mg/day + oxycodone 40-80 mg/day): 42.1 (±25.53) | Mean (±SD) bowel function ([5]; ITT, Visit 4, naloxone 20 mg/day + oxycodone 40-80 mg/day): 34.2 (±30.04) | Mean (±SD) bowel function ([5]; ITT, Visit 4, naloxone 40 mg/day + oxycodone 40-80 mg/day): 27.9 (±22.68) | Mean (±SD) bowel function ([5]; ITT, end of follow-up (oxycodone only), former 40 mg naloxone group): 42.4 (±23.19) | Mean (±SD) bowel function ([5]; PP, end of maintenance, naloxone 10 mg/day + oxycodone 40-80 mg/day): 39.4 (±23.44) | Mean (±SD) bowel function ([5]; PP, end of maintenance, naloxone 20 mg/day + oxycodone 40-80 mg/day): 29.8 (±29.29) | Mean (±SD) bowel function ([5]; PP, end of maintenance, naloxone 40 mg/day + oxycodone 40-80 mg/day): 29.6 (±28.34) | Oral bioavailability [6]: < 3% | Checked signs of withdrawal ([7]; oxycodone-pump rats, 60-min observation): the rats underwent robust withdrawal | Graded withdrawal signs (escape attempts, wet-dog shakes) ([7]; oxycodone-pump rats, first 15-min): robust withdrawal that was short-lasting that ended within the first 15-min | Graded withdrawal signs (escape attempts, wet-dog shakes) ([7]; oxycodone-pump rats, later intervals up to 45- to 60-min): no longer significantly present throughout the remainder of the experiment | Signs of withdrawal ([7]; vehicle-pump rats): no signs of withdrawal were observed
